One assay deals with KRas G12D (Homo sapiens, UniProt P01116, G12D). As to the kind of experiment: biochemical.
The next assay concerns the target KRas G12V (Homo sapiens, UniProt P01116, G12V). As to the kind of experiment: biochemical.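 Further: KRas binding measured by TR-FRET displacement at room temperature, IC50 fitted from percent of control values.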
The target in another assay is KRas G12R (Homo sapiens, UniProt P01116, G12R). The assay is described as follows: biochemical.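 Further: TR-FRET displacement assay of compound binding to KRas, read after one hour at room temperature, potency from a four-parameter fit of percent-of-control values.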
The subject of the next assay is pERK in MKN1 cells. The assay is described as follows: Inhibition of KRas phosphorylation of ERK (Cisbio HTRF pERK assay). The conditions noted are these: Homo sapiens, MKN-1, 3 h, read-out: Inhibition (HTRF IC50) of KRas-mediated Phosphorylation of ERK, MKN1. (In general: Time-resolved FRET reads energy transfer from a long-lived donor to a nearby acceptor.)
In another assay the test system is pERK in PSN1 cells. The description is as above. The following applies: Homo sapiens, PSN1, 3 h, read-out: Inhibition (HTRF IC50) of KRas-mediated Phosphorylation of ERK, PSN1.
The test system of the next assay is pERK in ASPC1 cells. The assay is described as above. The conditions noted are these: Homo sapiens, ASPC1, read-out: Inhibition (HTRF IC50) of KRas-mediated Phosphorylation of ERK, AsPC-1.
A further assay deals with pERK in H727 cells. Described as above. The conditions noted are these: Homo sapiens, NCI-H727, read-out: Inhibition (HTRF IC50) of KRas-mediated Phosphorylation of ERK, H727.
The subject of the next assay is pERK in A549 cells. The assay is described as above. The conditions noted are these: Homo sapiens, A549, read-out: Inhibition (HTRF IC50) of KRas-mediated Phosphorylation of ERK, A549.
The next assay relates to pERK in H460 cells. Described as above. The conditions noted are these: Homo sapiens, NCI-H460, read-out: Inhibition (HTRF IC50) of KRas-mediated Phosphorylation of ERK, H460.
The subject of the next assay is pERK in HCT116 cells. The assay is described as above. The following applies: Homo sapiens, HCT-116, read-out: Inhibition (HTRF IC50) of KRas-mediated Phosphorylation of ERK, HCT116.
For the next assay, the system named is pERK in H358 cells. Described as above. The following applies: Homo sapiens, NCI-H358, read-out: Inhibition (HTRF IC50) of KRas-mediated Phosphorylation of ERK, H358.

KRas G12V, sequence (P01116 1-169 isoform P01116-2 G12V): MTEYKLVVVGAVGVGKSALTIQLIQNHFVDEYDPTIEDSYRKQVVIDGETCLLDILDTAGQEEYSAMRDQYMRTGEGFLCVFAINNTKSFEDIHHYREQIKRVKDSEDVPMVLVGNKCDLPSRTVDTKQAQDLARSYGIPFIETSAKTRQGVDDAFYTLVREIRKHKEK
KRas G12R, sequence (P01116 1-169 isoform P01116-2 G12R): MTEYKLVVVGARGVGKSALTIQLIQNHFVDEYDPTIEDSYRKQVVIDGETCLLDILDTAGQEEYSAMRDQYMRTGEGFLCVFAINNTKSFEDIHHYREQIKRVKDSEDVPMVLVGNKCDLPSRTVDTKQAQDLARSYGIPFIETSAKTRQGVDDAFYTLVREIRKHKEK
KRas G12D, sequence (P01116 1-169 isoform P01116-2 G12D): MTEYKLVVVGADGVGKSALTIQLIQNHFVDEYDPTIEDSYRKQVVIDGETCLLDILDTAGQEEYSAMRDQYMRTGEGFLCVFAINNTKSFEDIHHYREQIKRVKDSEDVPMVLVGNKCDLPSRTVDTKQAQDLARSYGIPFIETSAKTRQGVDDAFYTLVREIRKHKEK

By IC50 is commonly meant the concentration that gives 50% inhibition. For `CCc1c(F)ccc2cc(O)cc(-c3ncc4c(N5C[C@@H](CO)C[C@](C)(O)C5)nc(OC[C@@]56CCCN5C[C@H](F)C6)nc4c3F)c12` (mixture of isomers) [Example 327, (3RS,5RS)-1-(7-(8-ethyl-7-fluoro-3-hydroxynaphthalen-1-yl)-8-fluoro-2-(((2R,7aS)-2-fluorotetrahydro-1H-pyrrolizin-7a(5H)-yl)methoxy)pyrido[4,3-d]pyrimidin-4-yl)-5-(hydroxymethyl)-3-methylpiperidin-3-ol], the IC50 on KRas G12D was at most 0.002 µM; against KRas G12V, at most 0.002 µM; at KRas G12R it was at most 0.002 µM; in the assay with pERK in MKN1 cells it was 0.014 µM; in the assay on pERK in PSN1 cells, 6.69 µM; in the assay with pERK in ASPC1 cells, 0.023 µM. Also, the IC50 was 0.098 µM with pERK in H727 cells; 0.238 µM in the assay with pERK in A549 cells; 0.206 µM with pERK in H460 cells; 0.381 µM in the assay with pERK in HCT116 cells; 0.01 µM with pERK in H358 cells.
As for `CCc1c(F)ccc2cc(O)cc(-c3ncc4c(N5CCC[C@]6(C5)C[C@@H](O)C6)nc(OC[C@@]56CCCN5C[C@H](F)C6)nc4c3F)c12` (single isomer, unassigned) [Example 324], the IC50 was 0.003 µM with pERK in MKN1 cells; 1.44 µM with pERK in PSN1 cells; 0.035 µM in the assay on pERK in ASPC1 cells; 0.022 µM in the assay on pERK in H727 cells; 0.095 µM in the assay with pERK in A549 cells; 0.099 µM in the assay on pERK in H460 cells. For the same molecule, the figures for the IC50 with pERK in HCT116 cells and with pERK in H358 cells were 0.061 µM and 0.014 µM, respectively.
As to `CCc1c(F)ccc2cc(O)cc(-c3ncc4c(N5CCCOCC5)nc(OC[C@@]56CCCN5C[C@H](F)C6)nc4c3F)c12` [Example 315, 5-ethyl-6-fluoro-4-(8-fluoro-2-(((2R,7aS)-2-fluorohexahydro-1H-pyrrolizin-7a-yl)methoxy)-4-(1,4-oxazepan-4-yl)pyrido[4,3-d]pyrimidin-7-yl)naphthalen-2-ol], the IC50 is 0.005 µM in the assay on pERK in MKN1 cells; 1.96 µM in the assay on pERK in PSN1 cells; 0.02 µM in the assay with pERK in ASPC1 cells; 0.02 µM in the assay on pERK in H727 cells; 0.028 µM in the assay on pERK in A549 cells; 0.034 µM with pERK in H460 cells. Besides, the results for the IC50 with pERK in HCT116 cells and in the assay on pERK in H358 cells were 0.024 µM and 0.005 µM, respectively.
For `CCc1c(F)ccc2cc(O)cc(-c3ncc4c(N5CCC[C@@](C)(O)C5)nc(OCC5(CN(C)C)CC5)nc4c3F)c12` [Example 316, (R)-1-(2-((1-((dimethylamino)methyl)cyclopropyl)methoxy)-7-(8-ethyl-7-fluoro-3-hydroxynaphthalen-1-yl)-8-fluoropyrido[4,3-d]pyrimidin-4-yl)-3-methylpiperidin-3-ol], the IC50 with pERK in MKN1 cells is 0.001 µM; in the assay with pERK in PSN1 cells, 2.04 µM; in the assay on pERK in ASPC1 cells, 0.008 µM; with pERK in H727 cells, 0.032 µM; with pERK in A549 cells, 0.051 µM; in the assay with pERK in H460 cells, 0.069 µM. The IC50 stood at 0.03 µM in the assay on pERK in HCT116 cells and 0.009 µM in the assay with pERK in H358 cells.
With `CCc1c(F)ccc2cc(O)cc(-c3ncc4c(N5CCC[C@@](C)(O)C5)nc(OCC5(CN6CCOCC6)CC5)nc4c3F)c12` [Example 332, (R)-1-(7-(8-ethyl-7-fluoro-3-hydroxynaphthalen-1-yl)-8-fluoro-2-((1-(morpholinomethyl)cyclopropyl)methoxy)pyrido[4,3-d]pyrimidin-4-yl)-3-methylpiperidin-3-ol], the IC50 on KRas G12D was at most 0.002 µM; at KRas G12V, at most 0.002 µM; against KRas G12R, 0.003 µM; in the assay on pERK in MKN1 cells, 0.002 µM; with pERK in PSN1 cells it was 0.71 µM; with pERK in ASPC1 cells, 0.006 µM. Also, the IC50 in the assay with pERK in H727 cells was determined as 0.031 µM; in the assay with pERK in A549 cells, 0.013 µM; with pERK in H460 cells, 0.022 µM; in the assay with pERK in HCT116 cells, 0.048 µM; in the assay on pERK in H358 cells, 0.003 µM.
Consider `CCc1c(F)ccc2cc(O)cc(-c3ncc4c(N5CCC[C@@](C)(O)C5)nc(OCC5(CN6CCN(C)CC6)CC5)nc4c3F)c12` [Example 336, (R)-1-(7-(8-ethyl-7-fluoro-3-hydroxynaphthalen-1-yl)-8-fluoro-2-((1-((4-methylpiperazin-1-yl)methyl)cyclopropyl)methoxy)pyrido[4,3-d]pyrimidin-4-yl)-3-methylpiperidin-3-ol], for which the IC50 against KRas G12D was at most 0.002 µM; at KRas G12V, at most 0.002 µM; against KRas G12R, at most 0.002 µM; in the assay on pERK in MKN1 cells it was 0.004 µM; in the assay with pERK in PSN1 cells it was 4.12 µM; in the assay with pERK in ASPC1 cells, 0.032 µM. The IC50 with pERK in H727 cells worked out at 0.129 µM; in the assay on pERK in A549 cells it was 0.075 µM; in the assay on pERK in H460 cells it was 0.162 µM; in the assay with pERK in HCT116 cells it was 0.208 µM; with pERK in H358 cells, 0.059 µM.
`CCc1c(F)ccc2cc(O)cc(-c3ncc4c(N5CCCn6nc(C(=O)NC)cc6C5)nc(OC[C@@]56CCCN5C[C@H](F)C6)nc4c3F)c12` [Example 339, 5-(7-(8-ethyl-7-fluoro-3-hydroxynaphthalen-1-yl)-8-fluoro-2-(((2R,7aS)-2-fluorotetrahydro-1H-pyrrolizin-7a(5H)-yl)methoxy)pyrido[4,3-d]pyrimidin-4-yl)-N-methyl-5,6,7,8-tetrahydro-4H-pyrazolo[1,5-a][1,4]diazepine-2-carboxamide]: the IC50 on KRas G12D was at most 0.002 µM; against KRas G12V, at most 0.002 µM; against KRas G12R, at most 0.002 µM; with pERK in MKN1 cells it was 0.012 µM; in the assay with pERK in PSN1 cells, at least 10 µM; in the assay with pERK in ASPC1 cells it was 0.048 µM. Also, the IC50 with pERK in H727 cells was found to be 0.072 µM; with pERK in A549 cells, 0.557 µM; with pERK in H460 cells, 0.991 µM; with pERK in HCT116 cells, 0.826 µM; in the assay on pERK in H358 cells, 0.095 µM.
As for `CCc1c(F)ccc2cc(O)cc(-c3ncc4c(N5CCCn6nc(NC)cc6C5)nc(OC[C@@]56CCCN5C[C@H](F)C6)nc4c3F)c12` [Example 340, 5-ethyl-6-fluoro-4-(8-fluoro-2-(((2R,7aS)-2-fluorohexahydro-1H-pyrrolizin-7a-yl)methoxy)-4-(2-(methylamino)-7,8-dihydro-4II-pyrazolo[1,5-a][1,4]diazepin-5(6H)-yl)pyrido[4,3-d]pyrimidin-7-yl)naphthalen-2-ol], the IC50 against KRas G12D is at most 0.002 µM; on KRas G12V, at most 0.002 µM; against KRas G12R, at most 0.002 µM; in the assay with pERK in MKN1 cells it was 0.026 µM; with pERK in PSN1 cells it was at least 10 µM; in the assay with pERK in ASPC1 cells it was 0.039 µM. For the same molecule, the IC50 in the assay on pERK in H727 cells was 0.149 µM; with pERK in A549 cells, 0.353 µM; in the assay with pERK in H460 cells it was 0.373 µM; in the assay with pERK in HCT116 cells it was 0.999 µM; in the assay on pERK in H358 cells it was 0.055 µM.
Take `C[C@@]1(O)CCCN(c2nc(OC[C@@]34CCCN3C[C@H](F)C4)nc3c(F)c(-c4cc(O)cc5ccc(F)c(F)c45)ncc23)C1` [Example 514, (R)-1-(7-(7,8-difluoro-3-hydroxynaphthalen-1-yl)-8-fluoro-2-(((2R,7aS)-2-fluorohexahydro-1H-pyrrolizin-7a-yl)methoxy)pyrido[4,3-d]pyrimidin-4-yl)-3-methylpiperidin-3-ol]: the IC50 in the assay with pERK in MKN1 cells is 0.005 µM; with pERK in PSN1 cells it was 0.859 µM; with pERK in ASPC1 cells, 0.015 µM; with pERK in H727 cells, 0.019 µM; in the assay on pERK in A549 cells, 0.02 µM; with pERK in H460 cells it was 0.06 µM. Besides, the IC50 in the assay with pERK in HCT116 cells is 0.03 µM; in the assay with pERK in H358 cells it was 0.011 µM.

Source of the values: patent US12398154B2, “Azaquinazoline pan-KRas inhibitors” (Mirati Therapeutics, Inc., priority 2020, dated 2025).
